Results taken from ChEMBL document CHEMBL1773062, “Opioid receptor probes derived from cycloaddition of the hallucinogen natural product salvinorin A” (J Nat Prod, 2011).

Tests used:
[1] = biological target: Delta-type opioid receptor (Homo sapiens, UniProt P41143); assay: Displacement of [3H]DADLE from delta opioid receptor
Mu-type opioid receptor = Mu-type opioid receptor (Homo sapiens, UniProt P35372); assay: Displacement of [3H]DAMGO from mu opioid receptor
[2] = biological target: T1, Kappa-type opioid receptor (Homo sapiens, UniProt P41145); assay: Displacement of [3H]U69593 from kappa opioid receptor
[3] = Selectivity ratio of Ki for mu opioid receptor to Ki for kappa opioid receptor
[4] = Selectivity ratio of Ki for delta opioid receptor to Ki for kappa opioid receptor
[5] = biological target: T1, Kappa-type opioid receptor; assay: Agonist activity at kappa opioid receptor assessed as stimulation of [35S]GTPgammaS binding relative to U50488; format: functional

Delta-type opioid receptor, sequence (P41143 whole entry): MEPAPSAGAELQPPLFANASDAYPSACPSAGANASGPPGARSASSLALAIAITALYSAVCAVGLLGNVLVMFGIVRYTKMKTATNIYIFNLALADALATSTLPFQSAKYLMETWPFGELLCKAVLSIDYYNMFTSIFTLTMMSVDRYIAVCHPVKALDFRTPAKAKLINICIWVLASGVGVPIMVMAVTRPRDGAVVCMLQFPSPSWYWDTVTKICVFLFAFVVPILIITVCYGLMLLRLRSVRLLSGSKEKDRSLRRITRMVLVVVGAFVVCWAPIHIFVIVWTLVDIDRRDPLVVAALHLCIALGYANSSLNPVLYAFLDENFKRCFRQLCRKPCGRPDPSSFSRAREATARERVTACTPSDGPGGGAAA
Mu-type opioid receptor, sequence (P35372 whole entry): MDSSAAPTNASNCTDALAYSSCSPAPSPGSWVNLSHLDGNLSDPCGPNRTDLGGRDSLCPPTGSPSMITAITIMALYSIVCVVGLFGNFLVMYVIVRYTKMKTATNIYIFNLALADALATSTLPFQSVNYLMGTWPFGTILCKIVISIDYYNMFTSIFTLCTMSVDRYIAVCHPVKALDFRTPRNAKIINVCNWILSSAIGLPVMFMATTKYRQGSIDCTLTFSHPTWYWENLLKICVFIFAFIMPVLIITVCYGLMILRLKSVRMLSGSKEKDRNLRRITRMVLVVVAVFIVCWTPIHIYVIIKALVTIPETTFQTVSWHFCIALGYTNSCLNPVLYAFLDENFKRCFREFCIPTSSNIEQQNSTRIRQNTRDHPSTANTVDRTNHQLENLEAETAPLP
T1 sequence (P41145 whole entry): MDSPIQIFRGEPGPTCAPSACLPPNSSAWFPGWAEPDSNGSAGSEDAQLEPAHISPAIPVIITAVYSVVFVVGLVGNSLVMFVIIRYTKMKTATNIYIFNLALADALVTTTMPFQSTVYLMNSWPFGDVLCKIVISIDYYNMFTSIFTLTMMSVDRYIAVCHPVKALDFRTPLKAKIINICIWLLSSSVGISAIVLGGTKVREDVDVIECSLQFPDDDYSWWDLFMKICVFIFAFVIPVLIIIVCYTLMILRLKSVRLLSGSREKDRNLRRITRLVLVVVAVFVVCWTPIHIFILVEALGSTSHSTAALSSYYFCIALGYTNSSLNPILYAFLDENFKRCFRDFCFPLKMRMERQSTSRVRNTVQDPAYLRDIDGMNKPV

For `CCOC(=O)c1ccc([C@@H]2C[C@]3(C)[C@H]4C(=O)[C@@H](OC(C)=O)C[C@@H](C(=O)OC)[C@]4(C)CC[C@H]3C(=O)O2)cc1C(=O)OCC`, the Ki [1] was over 5000 nM, the Ki (Mu-type opioid receptor) was over 3000 nM and the Ki [2] was 228 nM. For the same molecule, the Ratio Ki [3] was over 13 and the Ratio Ki [4] was over 22.
Work on `COC(=O)[C@@H]1C[C@H](OC(C)=O)C(=O)[C@H]2[C@@]1(C)CC[C@H]1C(=O)O[C@H](C3=CC4OC3C3C5OC(c6c5c5ccccc5c(=O)c5ccccc65)C43)C[C@]21C` (mixture of isomers) yielded a Ki [1] of over 5200 nM, a Ki (Mu-type opioid receptor) of over 2700 nM and a Ki [2] of over 13000 nM. The Ratio Ki [3] was over 0.2 and the Ratio Ki [4] was over 17.
For `COC(=O)C1=C(C(=O)OC)C2OC1C=C2[C@@H]1C[C@]2(C)[C@H]3C(=O)[C@@H](OC(C)=O)C[C@@H](C(=O)OC)[C@]3(C)CC[C@H]2C(=O)O1` (some centres not stated), the Ki [1] was over 5000 nM, the Ki (Mu-type opioid receptor) was over 4800 nM and the Emax [5] was 100%. For the same molecule, the Ki [2] was 60 nM, the Ratio Ki [3] was over 80 and the Ratio Ki [4] was over 83.
In the case of `COC(=O)c1ccc([C@@H]2C[C@]3(C)[C@H]4C(=O)[C@@H](OC(C)=O)C[C@@H](C(=O)OC)[C@]4(C)CC[C@H]3C(=O)O2)cc1C(=O)OC`, the Ki [1] is reported as over 5000 nM, the Ki (Mu-type opioid receptor) is reported as over 3000 nM and the Ki [2] is reported as 286 nM. It also gave a Ratio Ki [3] of over 8 and a Ratio Ki [4] of over 17.
For `COC(=O)[C@@H]1C[C@H](OC(C)=O)C(=O)[C@H]2[C@@]1(C)CC[C@H]1C(=O)O[C@H](C3=CC4OC3C3C4C4OC3(C)c3c4c4ccccc4c(=O)c4ccccc34)C[C@]21C` (some centres not stated), the Ki [1] was over 5000 nM, the Ki (Mu-type opioid receptor) was over 1700 nM and the Ki [2] was 290 nM. The Ratio Ki [3] was over 6 and the Ratio Ki [4] was over 17.
`COC(=O)[C@@H]1C[C@H](OC(C)=O)C(=O)[C@H]2[C@@]1(C)CC[C@H]1C(=O)O[C@H](C3=CC4OC3c3ccccc34)C[C@]21C` (some centres not stated) showed a Ki [1] of over 10000 nM, a Ki (Mu-type opioid receptor) of over 2500 nM and a Ki [2] of 790 nM. The Ratio Ki [3] was over 3 and the Ratio Ki [4] was over 13.
`COC(=O)[C@@H]1C[C@H](OC(C)=O)C(=O)[C@H]2[C@@]1(C)CC[C@H]1C(=O)O[C@H](c3ccc4ccccc4c3)C[C@]21C` showed a Ki [1] of over 5000 nM, a Ki (Mu-type opioid receptor) of over 3000 nM and a Ki [2] of over 8000 nM. The Ratio Ki [3] was over 0.4 and the Ratio Ki [4] was over 0.6.
`CCOC(=O)C1=C(C(=O)OCC)C2OC1C=C2[C@@H]1C[C@]2(C)[C@H]3C(=O)[C@@H](OC(C)=O)C[C@@H](C(=O)OC)[C@]3(C)CC[C@H]2C(=O)O1` (some centres not stated) showed a Ki [1] of 2260 nM, a Ki (Mu-type opioid receptor) of over 3200 nM and an Emax [5] of 90%. It also gave a Ki [2] of 120 nM, a Ratio Ki [3] of over 25 and a Ratio Ki [4] of 19.
